14 compounds from patent US8288380B2, “Thiophenediamine derivative having urea structure” (Santen Pharmaceutical Co., Ltd., priority 2008, dated 2012) can be followed below.

Assay [1] concerns human trabecular meshwork cell line (TM-1 cells). In words: Test for evaluation of effect of morphological change on trabecular meshwork cells (cell shape index, CSI). The class given is cell-based. To be noted: final concentration 10 μM, 24 hours incubation, Control 0.694, lower CSI indicates greater morphological changes. From the text: Further, as a result of studying an effect morphological change of the present compound on trabecular meshwork cells, i.e., an effect of morphological change of the present compound on trabecular meshwork cells in an evaluation system using the cell shape index (hereinafter referred to as “CSI”) reported in The Journal of Clinical Investigation, 103, 1141-1150 (1999) as an index, it was found the present compound has an excellent effect of morphological change on trabecular meshwork cells.
As a method for evaluating a cellular morphological change, an evaluation system using the cell shape index (hereinafter referred to as “CSI”) as an index has been reported in The Journal of Clinical Investigation, 103, 1141-1150 (1999). Therefore, according to the method described in the above document, an effect of morphological change of the present compounds on trabecular meshwork cells was evaluated.
A human trabecular meshwork cell line (hereinafter referred to as “TM-1 cells”) reported in Investigative Ophthalmology & Visual Science, 43, 151-161 (2002) was used.
Culture medium 1: A reagent was prepared by adding fetal bovine serum (10%), L-glutamine (2 mM), amphotericin B ([…]), and gentamicin (25 μg/mL) to Dulbecco's Modified Eagle Medium (hereinafter referred to as “D-MEM”).
Culture medium 2: A reagent was prepared by adding fetal bovine serum (3%), L-glutamine (2 mM), amphotericin B (2.5 μg/mL), and gentamicin (25 μg/mL) were added to D-MEM.
Cell staining liquid: A mixed liquid of Calcein-AM (16 μM) and Hoechst 33342 (40 μM) was prepared by diluting a Calcein-AM solution (cytoplasmic staining reagent, manufactured by Dojindo Laboratories) and a Hoechst 33342 solution (nuclear staining reagent, manufactured by Dojindo Laboratories) with D-MEM containing L-glutamine (2 mM), amphotericin B (2.5 μg/mL), and gentamicin (25 μg/mL).
TM-1 cells subcultured at 37° C. in a 8% carbon dioxide gas atmosphere were treated with a trypsin/EDTA solution (0.05% trypsin and 0.53 mM tetrasodium ethylenediaminetetraacetate) at 24 hours before performing a drug treatment mentioned below and seeded on a 96-well culture plate. The culture medium 1 was used for the subculture of the cells. The culture medium 2 was used for the cell culture after seeding the cells on the plate.
A test compound was dissolved in DMSO, whereby a 5 mM solution was prepared. Then, the resulting solution was diluted with the culture medium 2, whereby a 200 μM test compound solution was prepared.
It has been reported that Y-27632 which is a Rho kinase inhibitor induces a morphological change in trabecular meshwork cells in Investigative Ophthalmology & Visual Science, 42, 137-144 (2001). Therefore, Y-27632 (produced according to the method described in WO 90/05723) was used as a positive control, and dissolved in DMSO in the same manner as the test compound, whereby a 5 mM solution was prepared, and then, the resulting solution was diluted with the culture medium 2, whereby a 200 μM positive control compound solution was prepared.
1) To a 96-well culture plate, a solution of TM-1 cells adjusted to a cell density of […] was added in an amount of 95 μL (1.5×10^4 cells) per well.
2) Incubation was performed at 37° C. in a 8% carbon dioxide gas atmosphere for 24 hours.
3) The test compound solution or positive control compound solution was added in an amount of 5 μL per well (the final concentration of the test compound or positive control compound was 10 μM). As a control, the culture medium 2 containing DMSO (4%) was added in an amount of 5 μL per well.
4) Incubation was performed at 37° C. in a 8% carbon dioxide gas atmosphere for 24 hours.
5) The cell staining liquid was added in an amount of 10 μL per well.
6) Incubation was performed at 37° C. in a 8% carbon dioxide gas atmosphere for 1 hour to stain the cells.
7) A 37% formaldehyde solution was added in an amount of 10 μL per well.
8) Incubation was performed at room temperature for 1 hour to fix the cells. […]

The test system of assay [2] is HDAC (HeLa nuclear extract). Description: Test for evaluation of HDAC inhibitory activity (HDAC Fluorimetric Assay/Drug Discovery Kit, Biomol). It is filed as biochemical. To be noted: final concentration of the test compound 30 μM, values more than 100% shown as 100%. As for the experimental part:
Using HDAC Fluorimetric Assay/Drug Discovery Kit (manufactured by Biomol), HDAC inhibitory activity of the present compounds was measured according to the protocol included with the kit. The kit contains Buffer, HeLa nuclear extract (includes HDAC), Substrate, Developer and Trichostatin A HDAC inhibitor).
A test compound was dissolved in dimethyl sulfoxide (hereinafter referred to as “DMSO”), whereby a 2 mg/mL solution was prepared. Then, the resulting solution was diluted with Buffer containing 5% DMSO, whereby a 150 μM test compound solution was prepared.
1) To a 384-well culture plate, the test compound solution was added in an amount of 2 μL per well.
2) HeLa nuclear extract was diluted 30-fold with Buffer. The resulting solution was added in an amount of 3 μL per well, and then incubation was performed at 37° C. for 2 hours.
3) Substrate was diluted 500-fold with Buffer. The resulting solution was added in an amount of 5 μL per well (the final concentration of the test compound was 30 μM), and then incubation was performed at 37° C. for 10 minutes.
4) Developer was diluted 20-fold with Buffer and Trichostatin A (2 μM) was added to it. The resulting solution was added in an amount of 10 μL per well, and then incubation was performed at room temperature for 15 minutes.
5) The fluorescence intensity of each well was measured using multilabel counter ARVO (manufactured by Wallac) with excitation at 360 nm and emission at 460 nm.
6) A control data was obtained from the same experiment except that Buffer containing 5% DMSO was added instead of the test compound solution as the above-mentioned procedure from 1) to 5).
7) A blank data was obtained from the same experiment except that Buffer containing 5% DMSO was added instead of the test compound solution and that Buffer was added instead of Hela nuclear extract as the above-mentioned procedure from 1) to 5).
Enzyme inhibitory rate (%) was calculated using the following equation. (Enzyme Inhibitory Rate(%))=100×[1−{(Fluorescence Intensity of Test Compound Solution)−(Florescence Intensity of Blank)}/{(Florescence Intensity of Control)−(Florescence Intensity of Blank)}] (Test Results)

With `CN(C)CCN(Cc1ccc(C(=O)Nc2cscc2N)nc1)C(=O)Nc1ccc2c(c1)OCCO2` [Compound No. 1-1, N-(4-Aminothiophen-3-yl)-5-[3-(2,3-dihydrobenzo[1,4]dioxin-6-yl)-1-(2-dimethylaminoethyl)ureidomethyl]pyridine-2-carboxylic acid amide], in assay [1], the CSI was found to be 0.527. Moreover, in assay [2], the “Enzyme Inhibitory Rate (%)” value amounted to 97%. Turning to `CN(C)CCN(Cc1ccc(C(=O)Nc2cscc2N)nc1)C(=O)Nc1ccsc1` [Compound No. 1-7, N-(4-Aminothiophen-3-yl)-5-[1-(2-dimethylaminoethyl)-3-(thiophen-3-yl)ureidomethyl]pyridine-2-carboxylic acid amide], in assay [1], the CSI is given as 0.523. Besides, the “Enzyme Inhibitory Rate (%)” value in assay [2] is given as 100%. `CN(C)CCN(Cc1ccc(C(=O)Nc2cscc2N)nc1)C(=O)NCCc1ccccc1` [Compound No. 1-8, N-(4-Aminothiophen-3-yl)-5-[1-(2-dimethylaminoethyl)-3-phenethylureidomethyl]pyridine-2-carboxylic acid amide] returned a CSI in assay [1] of 0.548. The “Enzyme Inhibitory Rate (%)” value in assay [2] is given as 96%.

Consider `CN(C)CCN(Cc1ccc(C(=O)Nc2cscc2N)nc1)C(=O)Nc1ccc(F)c(F)c1` [Compound No. 1-18, N-(4-Aminothiophen-3-yl)-5-[3-(3,4-difluorophenyl)-1-(2-dimethylaminoethyl)ureidomethyl]pyridine-2-carboxylic acid amide], for which the CSI in assay [1] was 0.519. In addition, the “Enzyme Inhibitory Rate (%)” value in assay [2] is 97%. In assay [1], `CN(C)CCCN(Cc1ccc(C(=O)Nc2cscc2N)nc1)C(=O)Nc1ccsc1` [Compound No. 1-24, N-(4-Aminothiophen-3-yl)-5-[1-(3-dimethylaminopropyl)-3-(thiophen-3-yl)ureidomethyl]pyridine-2-carboxylic acid amide] had a CSI of 0.509. In assay [2], the “Enzyme Inhibitory Rate (%)” value is 100%. Compound `Nc1cscc1NC(=O)c1ccc(CN(CCCN2CCOCC2)C(=O)NC2CCCC2)cn1` [Compound No. 1-34, N-(4-Aminothiophen-3-yl)-5-[3-cyclopentyl-1-[3-(morpholin-4-yl)propyl]ureidomethyl]pyridine-2-carboxylic acid amide] registered a CSI in assay [1] of 0.516. The “Enzyme Inhibitory Rate (%)” value in assay [2] is 97%.

Take `CC(C)NC(=O)N(CCCN1CCN(C)CC1)Cc1ccc(C(=O)Nc2cscc2N)nc1` [Compound No. 1-56, N-(4-Aminothiophen-3-yl)-5-[3-isopropyl-1-[3-(4-methylpiperazin-1-yl)propyl]ureidomethyl]pyridine-2-carboxylic acid amide]: the CSI in assay [1] was 0.422. Besides, in assay [2], the “Enzyme Inhibitory Rate (%)” value stood at 97%. Regarding `Nc1cscc1NC(=O)c1ccc(CN(CCCCN2CCOCC2)C(=O)NCCc2ccccc2)cn1` [Compound No. 1-59, N-(4-Aminothiophen-3-yl)-5-[1-[4-(morpholin-4-yl)butyl]-3-phenethylureidomethyl]pyridine-2-carboxylic acid amide], the CSI in assay [1] is 0.500. For the same compound, the “Enzyme Inhibitory Rate (%)” value in assay [2] turned out to be 97%. In assay [1], `Nc1cscc1NC(=O)c1ccc(CN(CCN2CCCC2)C(=O)NC2CCCC2)cn1` [Compound No. 1-71, N-(4-Aminothiophen-3-yl)-5-[3-cyclopentyl-1-[2-(pyrrolidin-1-yl)ethyl]ureidomethyl]pyridine-2-carboxylic acid amide] yielded a CSI of 0.481. Moreover, the “Enzyme Inhibitory Rate (%)” value in assay [2] stood at 100%. The like results for `CN1CCN(CCN(Cc2ccc(C(=O)Nc3cscc3N)nc2)C(=O)NCCc2ccc3c(c2)OCO3)CC1` [Compound No. 1-77, N-(4-Aminothiophen-3-yl)-5-[2-[3-(benzo[1,3]dioxol-5-yl)]ethyl-1-[2-(4-methylpiperazin-1-yl)ethyl]ureidomethyl]pyridine-2-carboxylic acid amide] were, in that order, 0.515 and 100%. `CCOC(=O)CNC(=O)N(CCCN1CCOCC1)Cc1ccc(C(=O)Nc2cscc2N)nc1` [Compound No. 1-88, N-(4-Aminothiophen-3-yl)-5-[3-ethoxycarbonylmethyl-1-[3-(morpholin-4-yl)propyl]ureidomethyl]pyridine-2-carboxylic acid amide] came in with a CSI in assay [1] of 0.539. Also, the “Enzyme Inhibitory Rate (%)” value in assay [2] was 95%.

As to `CN(C)CCN(Cc1ccc(C(=O)Nc2cscc2N)nc1)C(=O)Nc1nccs1` [Compound No. 1-103, N-(4-Aminothiophen-3-yl)-5-[1-(2-dimethylaminoethyl)-3-(thiazol-2-yl)ureidomethyl]pyridine-2-carboxylic acid amide], the CSI in assay [1] turned out to be 0.496. The “Enzyme Inhibitory Rate (%)” value in assay [2] is 97%.

In assay [1], `CN(C)CCN(Cc1ccc(C(=O)Nc2cscc2N)nc1)C(N)=O` [Compound No. 1-104, N-(4-Aminothiophen-3-yl)-5-[1-(2-dimethylaminoethyl)ureidomethyl]pyridine-2-carboxylic acid amide] yielded a CSI of 0.505. The “Enzyme Inhibitory Rate (%)” value in assay [2] was determined as 97%. On to `C[C@@H](N)[C@H]1CC[C@H](C(=O)Nc2ccncc2)CC1` [Y-27632, reference compound], for which, in assay [1], the CSI was 0.627.
